Our source for the activity, EC200 and EC300 values is patent US11981660B2, “Neurite outgrowth promoters and uses thereof” (UNIVERSITY OF MIAMI, priority 2018, dated 2024).

For the assay, the system named is hippocampal neurons. Put plainly: Neurite outgrowth assay in cultured E18 rat hippocampal neurons (48 h, βIII-tubulin staining, Cellomics ArrayScan). As to conditions: Hippocampal neuron; for activity at 0.015625 µg/mL: 15.625 ng/mL compound; for activity at 0.015625 µg/mL / activity at 0.03125 µg/mL / activity at 0.0625 µg/mL / activity at 0.125 µg/mL / activity at 0.25 µg/mL / activity at 0.5 µg/mL: 48 hours, read-out: neurite growth length (% NTL); for activity at 0.03125 µg/mL: 31.25 ng/mL compound; for activity at 0.0625 µg/mL: 62.5 ng/mL compound; for activity at 0.125 µg/mL: 125 ng/mL compound; for activity at 0.25 µg/mL: 250 ng/mL compound; for activity at 0.5 µg/mL: 500 ng/mL compound; for EC200 / EC300: 48 h, estimated using linear interpolation; for EC200: 200% effective dose, read-out: ED200%; for EC300: 300% effective dose, read-out: ED300%. In kind it is cell-based. As for the experimental part:
Pre-coating culture plates: On the day before the experiment, 96-well plates were pre-coated by plating 50 μL of poly-D-lysine solution (PDL, 0.5 mg/mL) in each well. The next morning, the plates were washed four or five times with HBSS or PBS (150 μL/rinse), then left in buffer until cell plating
Preparing the cells: A timed pregnant rat carrying E18 embryos was euthanized using an IACUC approved method. In a laminar flow hood, the embryos were removed and placed in a petri dish containing Hank's Balanced Salt Solution (HBSS) with 20 mM HEPES, pH 7.3. Pup brains were dissected (see Meberg et al., Methods cell Biol 71:111-127 (2003)) and hippocampi were collected in 15 mL a conical tube containing Hibernate E with SM1 (2% v/v).
Dissociation media was prepared by combining 4.5 mL of Hibernate E (without SM1) with 0.5 mL of trypsin and 100 μl of DNAse solution. The medium over the hippocampi was carefully removed and replaced with dissociation solution, then incubated at 37° C. for 15-20 minutes, occasionally swirling the tube.
Using flame polished cotton plugged Pasteur pipettes, the dissociation media was removed, and then 5 mL of Hibernate E containing SM1 were added. The tube was swirled to thoroughly wash the tissue. The tissue was allowed to settle to the bottom of the tube, and the rinse solution was carefully removed. This step was repeated 5 times to dilute out trypsin and DNAse and remove any debris from lysed cells.
The final rinse media was removed from the tube and 1 pipette-full (1-2 mL) of Hibernate E with SM1 was added. Using the flame-polished Pasteur pipette (pre-wetted with rinse media), the tube was triturated until all cells had dissociated and no visible chunks of tissue remained. Fewer than ten triturations were typically performed. The volume was adjusted to 8-12 mL using Hibernate E containing SM1, the well was mixed and cell concentration was determined.
Plating: The cells were diluted in culture media (NbActiv4 Cell-culture media) to a final concentration of 10,000 cells/mL. The HBSS was aspirated from PDL coated plates, and 150 μL of cell solution was loaded in the middle 48 wells at 1500 cells per well. Water was loaded in the outer wells to decrease evaporation from edge wells. Cells were allowed to adhere for 2 hours in tissue culture incubator prior to treatment.
Treatment: Compounds were diluted to various concentrations to provide 6 dose response concentrations of 500 ng/mL, 250 ng/mL, 125 ng/mL, 62.5 ng/mL, 31.25 ng/mL, and 15.625 ng/mL. The plates were cultured for 48 hours, exposed to the compound at the various dose response concentrations.
Fixing the cultures: The culture medium was removed from the plates and immediately replaced with 100-200 μL of warm (37° C.) 4% paraformaldehyde (“PFA”) solution in phosphate-buffered saline (“PBS”). The cells were fixed for 15-20 minutes at room temperature, and then rinsed with PBS (200 μl/well×3).
Staining and imaging: The PBS was removed and replaced with 100 μL of blocking/permeabilization buffer (PBS, 0.2% fish gelatin, 0.03% Triton X-100, 0.02% NaN3), then incubated overnight at 4° C. To this was added 100 μL of primary antibody solution (mouse anti-Beta III tubulin in blocking buffer) and incubate overnight at 4° C. The wells were rinsed with PBS (200 μl×3), which was then removed and replaced with 100 μL of secondary antibody solution (Goat anti-mouse Alexa 488, 10 μg/ml Hoechst 33342, 0.2% fish gelatin, 0.02% azide, in PBS). The plate was shaken gently on a rotating shaker for 2 hours, then rinsed with PBS (200 μl×5).
The plate was imaged using a Cellomics ArrayScan VTI in 2 different channels for nuclear staining (Hoechst) and cell body/neurite staining (βIII-tubulin). Typically, nine fields per well were imaged with a 5× objective and automatically traced by the Neuronal Profiling Bioapplication. To get reproducible results, at least 200-300 valid neurons were measured per condition. […]

Each structure is given as a SMILES string.

Take `CCC(C)C1=N[C@@H](CCCCN2C[C@@H](c3ccccc3)N(CCCC(C)C)C2=S)CN1` (stereo partly drawn) [Compound A19, (4R)-1-(4-((4S)-2-(sec-butyl)-4,5-dihydro-1H-imidazol-4-yl)butyl)-3-(4-methylpentyl)-4-phenylimidazolidine-2-thione]: the activity at 0.015625 µg/mL was 121%, the activity at 0.03125 µg/mL stood at 179%, the activity at 0.0625 µg/mL turned out to be 253% and the activity at 0.125 µg/mL came out at 264%. Further, the activity at 0.25 µg/mL came to 266% and the activity at 0.5 µg/mL is 276%.
As to `CCC(C)C1=N[C@@H](CCCCN2C[C@@H](C)N(CCC3CCCCC3)C2=S)CN1` (stereo partly drawn) [Compound A4, (4R)-1-(4-((4S)-2-(sec-butyl)-4,5-dihydro-1H-imidazol-4-yl)butyl)-3-(2-cyclohexylethyl)-4-methylimidazolidine-2-thione], the activity at 0.015625 µg/mL was determined as 102%, the activity at 0.03125 µg/mL was found to be 121%, the activity at 0.0625 µg/mL amounted to 143% and the activity at 0.125 µg/mL is 196%. Also, the activity at 0.25 µg/mL is 246% and the activity at 0.5 µg/mL is 358%.
As to `CCC(C)C1=N[C@@H](CCCCN2C[C@@H](CC(C)C)N(CCCC(C)C)C2=S)CN1` (mixture of isomers) [Compound A10, (4R)-1-(4-((4S)-2-(sec-butyl)-4,5-dihydro-1H-imidazol-4-yl)butyl)-4-isobutyl-3-(4-methylpentyl)imidazolidine-2-thione], the activity at 0.015625 µg/mL stood at 123%, the activity at 0.03125 µg/mL was 180%, the activity at 0.0625 µg/mL is 223% and the activity at 0.125 µg/mL amounted to 254%. For the same compound, the activity at 0.25 µg/mL amounted to 259% and the activity at 0.5 µg/mL was 240%.
For the compound `CC1CCC(CN2C(=S)N(CCCC[C@H]3CNC(CCCc4ccccc4)=N3)C[C@H]2c2ccccc2)CC1` (stereo partly drawn) [Compound A27, (R)-3-((4-methylcyclohexyl)methyl)-4-phenyl-1-(4-((S)-2-(3-phenylpropyl)-4,5-dihydro-1H-imidazol-4-yl)butyl)imidazolidine-2-thione], the activity at 0.015625 µg/mL was 185%, the activity at 0.03125 µg/mL was found to be 174%, the activity at 0.0625 µg/mL is 238% and the activity at 0.125 µg/mL came to 269%. The activity at 0.25 µg/mL was 245%, the activity at 0.5 µg/mL came out at 221%, the EC200 was 0.017 µM and the EC300 is above 0.471 µM.
Consider `CC1CCC(CN2C(=S)N(CCCC[C@H]3CNC(CCCc4ccccc4)=N3)C[C@H]2C)CC1` (stereo partly drawn) [Compound A9, (R)-4-methyl-3-((4-methylcyclohexyl)methyl)-1-(4-((S)-2-(3-phenylpropyl)-4,5-dihydro-1H-imidazol-4-yl)butyl)imidazolidine-2-thione], for which the activity at 0.015625 µg/mL stood at 88%, the activity at 0.03125 µg/mL amounted to 102%, the activity at 0.0625 µg/mL was determined as 118% and the activity at 0.125 µg/mL was found to be 70%. For the same compound, the activity at 0.25 µg/mL came to 238% and the activity at 0.5 µg/mL was determined as 297%.
As for `S=C1N(CCCC[C@H]2CNC(CCCc3ccccc3)=N2)C[C@@H](c2ccccc2)N1CCC1CCCCC1` [Compound A24, (R)-3-(2-cyclohexylethyl)-4-phenyl-1-(4-((S)-2-(3-phenylpropyl)-4,5-dihydro-1H-imidazol-4-yl)butyl)imidazolidine-2-thione], the activity at 0.015625 µg/mL was determined as 144%, the activity at 0.03125 µg/mL was 209%, the activity at 0.0625 µg/mL was 252% and the activity at 0.125 µg/mL stood at 254%. Also, the activity at 0.25 µg/mL worked out at 222% and the activity at 0.5 µg/mL was determined as 184%.
With `CC(C)C[C@@H]1CN(CCCC[C@H]2CNC(C3CCCC3)=N2)C(=S)N1CCC1CCCCC1` [Compound A14, (R)-3-(2-cyclohexylethyl)-1-(4-((S)-2-cyclopentyl-4,5-dihydro-1H-imidazol-4-yl)butyl)-4-isobutylimidazolidine-2-thione], the activity at 0.015625 µg/mL turned out to be 195%, the activity at 0.03125 µg/mL is 256%, the activity at 0.0625 µg/mL worked out at 271% and the activity at 0.125 µg/mL was 283%. The activity at 0.25 µg/mL was found to be 277%, the activity at 0.5 µg/mL was found to be 249%, the EC200 was 0.004 µM and the EC300 is above 0.543 µM.
With `CC(C)C[C@@H]1CN(CCCC[C@H]2CNC(CCCc3ccccc3)=N2)C(=S)N1CCC1CCCCC1` [Compound A15, (R)-3-(2-cyclohexylethyl)-4-isobutyl-1-(4-((S)-2-(3-phenylpropyl)-4,5-dihydro-1H-imidazol-4-yl)butyl)imidazolidine-2-thione], the activity at 0.015625 µg/mL turned out to be 114%, the activity at 0.03125 µg/mL is 135%, the activity at 0.0625 µg/mL is 199% and the activity at 0.125 µg/mL was determined as 201%. Besides, the activity at 0.25 µg/mL amounted to 267% and the activity at 0.5 µg/mL came to 247%.
With `S=C1N(CCCC[C@H]2CNC(C3CCCC3)=N2)C[C@@H](c2ccccc2)N1CCC1CCCCC1` [Compound A23, (R)-3-(2-cyclohexylethyl)-1-(4-((S)-2-cyclopentyl-4,5-dihydro-1H-imidazol-4-yl)butyl)-4-phenylimidazolidine-2-thione], the activity at 0.015625 µg/mL was 182%, the activity at 0.03125 µg/mL is 252%, the activity at 0.0625 µg/mL turned out to be 260% and the activity at 0.125 µg/mL stood at 262%. Besides, the activity at 0.25 µg/mL worked out at 232%, the activity at 0.5 µg/mL stood at 186%, the EC200 was 0.007 µM and the EC300 was 0.091 µM.
In the case of `CCC(C)C1=N[C@@H](CCCCN2C[C@@H](CC(C)C)N(CC3CCC(C)CC3)C2=S)CN1` (stereo partly drawn) [Compound A16, (4R)-1-(4-((4S)-2-(sec-butyl)-4,5-dihydro-1H-imidazol-4-yl)butyl)-4-isobutyl-3-((4-methylcyclohexyl)methyl)imidazolidine-2-thione], the activity at 0.015625 µg/mL is 131%, the activity at 0.03125 µg/mL was 216%, the activity at 0.0625 µg/mL was found to be 254% and the activity at 0.125 µg/mL stood at 268%. Also, the activity at 0.25 µg/mL is 236%, the activity at 0.5 µg/mL stood at 264%, the EC200 is 0.01 µM and the EC300 is 0.053 µM.
`CC(C)CCCN1C(=S)N(CCCC[C@H]2CNC(C3CCCC3)=N2)C[C@H]1C` [Compound A2, (R)-1-(4-((S)-2-cyclopentyl-4,5-dihydro-1H-imidazol-4-yl)butyl)-4-methyl-3-(4-methylpentyl)imidazolidine-2-thione]: the activity at 0.015625 µg/mL turned out to be 114%, the activity at 0.03125 µg/mL amounted to 138%, the activity at 0.0625 µg/mL was 176% and the activity at 0.125 µg/mL was 214%. For the same compound, the activity at 0.25 µg/mL was found to be 265% and the activity at 0.5 µg/mL came out at 324%.
Take `CC(C)CCCN1C(=S)N(CCCC[C@H]2CNC(CCCc3ccccc3)=N2)C[C@H]1CC(C)C` [Compound A12, (R)-4-isobutyl-3-(4-methylpentyl)-1-(4-((S)-2-(3-phenylpropyl)-4,5-dihydro-1H-imidazol-4-yl)butyl)imidazolidine-2-thione]: the activity at 0.015625 µg/mL was 127%, the activity at 0.03125 µg/mL was 145%, the activity at 0.0625 µg/mL was 194% and the activity at 0.125 µg/mL was found to be 237%. For the same compound, the activity at 0.25 µg/mL came to 266% and the activity at 0.5 µg/mL is 240%.
